The values below come from patent US8906928B2, “Substituted pyrazolo-pyrrolo-pyridine-dione compounds” (ArQule, Inc., priority 2009, dated 2014).

Molecules are shown by their SMILES.

What all share (assay type): cell-based
The test system of one experiment is Kato III. Briefly: MTS assay (cell growth inhibition), Kato III. The settings on record: Kato III cells, 72 hours incubation with test compound; concentration not given. Summed up:
(§1)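 First, seed 3000 cells per well in low-serum (1% FBS) DMEM and culture 18 h. Next, add compounds prepared at 300× in DMSO and diluted 1:40 in DMEM; incubate 72 h. Finally, add MTS/PMS for 4 h and measure absorbance at 492 nm.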
A general note: Formazan colour is commonly taken as a measure of viable cells.

The next experiment has as its system DLD-1. Nature of the experiment: MTS assay (cell growth inhibition), DLD-1. The settings on record: DLD-1 cells, 72 hours incubation with test compound; concentration not given. In short, it runs like this:
as §1

Another experiment deals with PACA-2. Nature of the experiment: MTS assay (cell growth inhibition), PACA-2. The conditions noted are these: PACA-2 cells, 72 hours incubation with test compound; concentration not given. In short, it runs like this:
as §1

The next experiment concerns PC-3. Briefly: MTS assay (cell growth inhibition), PC-3. The settings on record: PC-3 cells, 72 hours incubation with test compound; concentration not given. In short, it runs like this:
as §1

For another experiment, the system named is NCI-H1299. Briefly: MTS assay (cell growth inhibition), NCI-H1299. The settings on record: NCI-H1299 cells, 72 hours incubation with test compound; concentration not given. In short, it runs like this: as §1
The subject of the next experiment is MDA-MB. Nature of the experiment: MTS assay (cell growth inhibition), MDA-MB. The conditions noted are these: MDA-MB cells, 72 hours incubation with test compound; concentration not given. Summed up: as §1

As to `O=C1c2cnc3[nH]ncc3c2C(=O)N1Cc1ccncc1` [Example 43, 7-(pyridin-4-ylmethyl)pyrazolo[3,4-b]pyrrolo[3,4-d]pyridine-6,8(3H,7H)-dione], the “MTS CELL KILL DATA (% INHIBITION) Kato III” value with Kato III is “C (C = <50% INHIBITION)”. In addition, in the experiment on DLD-1, the “MTS CELL KILL DATA (% INHIBITION) DLD-1” value is on record as “C (C = <50% INHIBITION)”. In the experiment on PACA-2, the “MTS CELL KILL DATA (% INHIBITION) PACA-2” value was “A (A = 80-100% INHIBITION)”. In the experiment on PC-3, the “MTS CELL KILL DATA (% INHIBITION) PC-3” value is given as “A (A = 80-100% INHIBITION)”. Also, in the experiment with NCI-H1299, the “MTS CELL KILL DATA (% INHIBITION) NCI-H1299” value is recorded as “C (C = <50% INHIBITION)”. Moreover, the “MTS CELL KILL DATA (% INHIBITION) MDA-MB” value with MDA-MB is “A (A = 80-100% INHIBITION)”.

On to `O=C1c2cnc3[nH]nc(-c4ccc(F)c(F)c4)c3c2C(=O)N1CCc1ccccc1` [Example 162, 1-(3,4-difluorophenyl)-7-(2-phenylethyl)pyrazolo[3,4-b]pyrrolo[3,4-d]pyridine-6,8(3H,7H)-dione], for which, in the experiment on Kato III, the “MTS CELL KILL DATA (% INHIBITION) Kato III” value is reported as “C (C = <50% INHIBITION)”. Further, in the experiment with DLD-1, the “MTS CELL KILL DATA (% INHIBITION) DLD-1” value was “C (C = <50% INHIBITION)”. The “MTS CELL KILL DATA (% INHIBITION) PACA-2” value in the experiment with PACA-2 was “B (B = 50-79% INHIBITION)”. Moreover, the “MTS CELL KILL DATA (% INHIBITION) PC-3” value in the experiment with PC-3 is “C (C = <50% INHIBITION)”. In addition, in the experiment on NCI-H1299, the “MTS CELL KILL DATA (% INHIBITION) NCI-H1299” value is “C (C = <50% INHIBITION)”. Further, the “MTS CELL KILL DATA (% INHIBITION) MDA-MB” value in the experiment on MDA-MB is recorded as “C (C = <50% INHIBITION)”.

As to `O=C1c2cnc3[nH]ncc3c2C(=O)N1CCCc1cccnc1` [Example 87, 7-(3-pyridin-3-ylpropyl)pyrazolo[3,4-b]pyrrolo[3,4-d]pyridine-6,8(3H,7H)-dione], the “MTS CELL KILL DATA (% INHIBITION) Kato III” value in the experiment with Kato III is on record as “C (C = <50% INHIBITION)”. In addition, the “MTS CELL KILL DATA (% INHIBITION) DLD-1” value in the experiment on DLD-1 is listed as “C (C = <50% INHIBITION)”. Also, the “MTS CELL KILL DATA (% INHIBITION) PACA-2” value with PACA-2 was “C (C = <50% INHIBITION)”. For the same compound, the “MTS CELL KILL DATA (% INHIBITION) PC-3” value in the experiment on PC-3 is “C (C = <50% INHIBITION)”. Moreover, in the experiment with NCI-H1299, the “MTS CELL KILL DATA (% INHIBITION) NCI-H1299” value was “C (C = <50% INHIBITION)”. In addition, the “MTS CELL KILL DATA (% INHIBITION) MDA-MB” value in the experiment with MDA-MB is “C (C = <50% INHIBITION)”.

In the case of `CC(CN1C(=O)c2cnc3[nH]ncc3c2C1=O)c1ccccc1` (stereo not drawn) [Example 96, 7-(2-phenylpropyl)pyrazolo[3,4-b]pyrrolo[3,4-d]pyridine-6,8(3H,7H)-dione], the “MTS CELL KILL DATA (% INHIBITION) Kato III” value in the experiment on Kato III is “C (C = <50% INHIBITION)”. Besides, the “MTS CELL KILL DATA (% INHIBITION) DLD-1” value in the experiment with DLD-1 was “C (C = <50% INHIBITION)”. Besides, the “MTS CELL KILL DATA (% INHIBITION) PACA-2” value in the experiment on PACA-2 is “C (C = <50% INHIBITION)”. Also, the “MTS CELL KILL DATA (% INHIBITION) PC-3” value in the experiment with PC-3 is on record as “C (C = <50% INHIBITION)”. Further, in the experiment on NCI-H1299, the “MTS CELL KILL DATA (% INHIBITION) NCI-H1299” value is given as “C (C = <50% INHIBITION)”. For the same compound, in the experiment on MDA-MB, the “MTS CELL KILL DATA (% INHIBITION) MDA-MB” value is “C (C = <50% INHIBITION)”.

With `O=C1NCCN1CCN1C(=O)c2cnc3[nH]ncc3c2C1=O` [Example 6, 7-[2-(2-oxoimidazolidin-1-yl)ethyl]pyrazolo[3,4-b]pyrrolo[3,4-d]pyridine-6,8(3H,7H)-dione], in the experiment with Kato III, the “MTS CELL KILL DATA (% INHIBITION) Kato III” value is reported as “A (A = 80-100% INHIBITION)”. Further, in the experiment with DLD-1, the “MTS CELL KILL DATA (% INHIBITION) DLD-1” value is recorded as “C (C = <50% INHIBITION)”. In the experiment on PACA-2, the “MTS CELL KILL DATA (% INHIBITION) PACA-2” value is “C (C = <50% INHIBITION)”. Besides, the “MTS CELL KILL DATA (% INHIBITION) PC-3” value in the experiment on PC-3 is listed as “A (A = 80-100% INHIBITION)”. Moreover, in the experiment with NCI-H1299, the “MTS CELL KILL DATA (% INHIBITION) NCI-H1299” value is reported as “A (A = 80-100% INHIBITION)”. The “MTS CELL KILL DATA (% INHIBITION) MDA-MB” value in the experiment on MDA-MB is on record as “A (A = 80-100% INHIBITION)”.

Take `O=C1c2cnc3[nH]ncc3c2C(=O)N1Cc1cccc(Br)c1` [Example 104, 7-(3-bromobenzyl)pyrazolo[3,4-b]pyrrolo[3,4-d]pyridine-6,8(3H ,7H)-dione]: the “MTS CELL KILL DATA (% INHIBITION) Kato III” value in the experiment with Kato III is reported as “A (A = 80-100% INHIBITION)”. Besides, the “MTS CELL KILL DATA (% INHIBITION) DLD-1” value in the experiment with DLD-1 is listed as “A (A = 80-100% INHIBITION)”. The “MTS CELL KILL DATA (% INHIBITION) PACA-2” value in the experiment with PACA-2 is reported as “A (A = 80-100% INHIBITION)”. Also, the “MTS CELL KILL DATA (% INHIBITION) PC-3” value with PC-3 is given as “A (A = 80-100% INHIBITION)”. In addition, the “MTS CELL KILL DATA (% INHIBITION) NCI-H1299” value in the experiment on NCI-H1299 is “A (A = 80-100% INHIBITION)”. The “MTS CELL KILL DATA (% INHIBITION) MDA-MB” value with MDA-MB was “A (A = 80-100% INHIBITION)”.
